Source: paper PMC10979105, “A simple method to resolve rate constants when the binding mechanism obeys induced fit or conformational selection” (The Journal of Biological Chemistry, 2024)
Values joined by “and” are separate entries in the source; they are usually repeats but may differ in a detail not shown here. Identical values can stand only once.

Assays:
thrombin mutant S195A = assay: Rapid kinetics (stopped-flow) of FPR binding to thrombin
Description: An important validation of the method is offered by application to a case where all rate constants have been determined from analysis of the two relaxations (Equations 3 and 4). In this case, one can assume no knowledge of the fast relaxation and consider only the slow relaxation and equilibrium titrations. We illustrate this point using FPR binding to the thrombin mutant S195A, inactivated at the catalytic S195 to prevent hydrolysis ([30]). Two relaxations were reported for this case, along with equilibrium titrations (Fig. 3, A and B). Analysis of the slow relaxation α2(x) yields α(0) = 0.60 ± 0.06 s^−1, α(∞) = 17 ± 2 s^−1, xm = 4.3 ± 0.4 μM, and α(xm) = 8.8 ± 0.9 s^−1 (Fig. 3A and Table 2). […] Interpretation of the binding mechanism in terms of CS gives k12 = 17 ± 2 s^−1 and koff = 0.60 ± 0.06 s^−1. Application of Equation 11 yields kon = 2.4 ± 0.2 μM^−1s^−1 and Equation 9 gives αˆ(0)=k12+k21 = 19 ± 2 s^−1 from which a value of k21 = 2.0 ± 0.2 s^−1 can be obtained (Table 2). These values are in excellent agreement with the ones reported originally from analysis of the two independent relaxations (Table 2) ([30]). When used in Equation 3 to predict the dependence of the fast relaxation α1(x) on [FPR], the curve (discontinuous line) deviates little from experimental data (Fig. 3A, top portion of the panel). Values derived from analysis of the two relaxations are obviously more rigorous and should be preferred when available, but the accuracy of values obtained by application of the method based on Equation 11 is noteworthy. The discrepancies in Table 2 between values of k21 for CS or koff and k32 for IF are small and the fast relaxation ( α1 in Fig. 3A) predicted from knowledge of a single, saturable relaxation ( α2 in Fig. 3A), and equilibrium binding measurements (Fig. 3B) is in excellent agreement with experimental data.
Figure 3 Binding of FPR to thrombin.A, rapid kinetics of FPR binding to thrombin showing the fast ( α1 ) and slow ( α2 ) relaxations defining a mechanism of binding consistent with IF or CS (see also Fig. 1A). Continuous lines depict Equations 3 and 4 in the original report ([30]) with best-fit parameter values of Equation 1 or Equation 2 listed in Table 2. […] The discontinuous line for the slow relaxation was drawn with the empirical expression [α(0)xm+α(∞)x]/(xm+x) , where x = [FPR], with best-fit parameters listed in Table 2. The discontinuous line for the fast relaxation was drawn using Equation 3 with the four independent rate constants obtained from application of Equation 11 (Table 2). The predicted fast relaxation (discontinuous line) approximates quite well the actual experimental data and lends confidence to the validity of the method. B, fractional saturation of FPR binding to thrombin. […] This value, together with the parameters derived from analysis of the slow relaxation in panel A, allows for derivation of the value of kon from Equation 11. The four independent rate constants derived from application of the method compare well with the values determined from application of Equations 3 and 4 in the original report ([30]). Data in panels A and B were taken from ([30]) and were obtained under the following experimental conditions: 400 mM ChCl, 50 mM Tris, 0.1% PEG8000, pH 8, at 15 °C. CS, conformational selection; FPR, H-D-Phe-Pro-Arg-p-nitroanilide; IF, induced fit.
(§1) The data analyzed in this study, that is, FPR binding to prethrombin-2, prothrombin, and thrombin (Figs. 2, A and B and 3, A and B) were taken from ([30]) without modification. The methodology used to produce the recombinant proteins, measure FPR binding by stopped-flow or equilibrium titrations is reported in ([30]) and references therein. Values of the slow relaxation α(x) (Fig. 1, A and B, 2A and 3A) are measured by stopped-slow as a function of the ligand concentration and derived from fit of the time evolution of the interaction according to the expression ([1])(12) A(x,t)=A0(x)+A1(x)exp{−α(x)t}

[1] = test system: prethrombin-2 (S195A mutant); assay: Rapid kinetics (stopped-flow) of FPR binding to prethrombin-2
Description: Rapid kinetics of FPR binding to thrombin resolved the two independent relaxations (Equations 3 and 4) for CS and the four independent rate constants. On the other hand, similar measurements for prethrombin-2 produced only a saturable relaxation increasing with [FPR] (Fig. 2A) ([30]), thereby preventing resolution of the four independent constants and a full comparison with the mature protease thrombin. This situation provides an ideal test for application of the method based on Equation 11. The saturable relaxation for FPR binding to prethrombin-2 increases from α(0) = […] to α(∞) = 150 ± 20 s^−1, with a midpoint xm = 200 ± 20 μM and α(xm) = 88 ± 9 s^−1 (Fig. 2A and Table 2). […] Interpretation of the saturable relaxation in terms of CS gives k12 = 150 ± 20 s^−1 and koff = 25 ± 3 s^−1. Application of Equation 11 then yields kon = 4.0 ± 0.4 μM^−1s^−1 and Equation 9 gives αˆ(0)=k12+k21 = 890 ± 90 s^−1, so k21 = 740 ± 70 s^−1 (Table 2). The value of kon is almost identical to that reported for the mature protease thrombin (2.6 ± 0.3 μM^−1s^−1), whilst the value of koff is 40-fold higher (25 ± 3 s^−1 versus 0.60 ± 0.06 s^−1) ([30]). […] The conclusion is independent of whether FPR binding to prethrombin-2 is interpreted according to CS or IF. Application of the conversion formulas in Table 1 gives rate constants for IF equal to kon = 4.0 ± 0.4 μM^−1s^−1, koff = 765 ± 80 s^−1, k23 = 120 ± 10 s^−1, and k32 = 29 ± 3 s^−1 (Table 2), thereby making the contribution of a decreased rate of dissociation in the protease even more evident. Importantly, the two sets of rate constants for IF and CS yield the same value for Kd,app (Table 2), as shown by application of Equation 10 and the conversion formulas in Table 1. The importance of koff in setting the difference between ligand binding to prethrombin-2 and thrombin was anticipated by previous studies ([30]). The method based on Equation 11 provides a quantitative estimate of the difference and adds rigor to previous conclusions.
Figure 2 Binding of FPR to thrombin zymogens.A, rapid kinetics of FPR binding to the zymogens prothrombin (closed circles) and prethrombin-2 (open circles), showing a saturable relaxation associated with the interaction. The lack of information on a fast relaxation increasing linearly with [FPR] prevented assignment of the value of kon in the original report ([30]). Curves were drawn with the empirical expression [α(0)xm+α(∞)x]/(xm+x) , where x =[FPR], with best-fit parameters listed in Table 2. B, fractional saturation of FPR binding to prothrombin (closed circles) and prethrombin-2 (open circles). These values, together with the parameters derived from the plots in panel A, allow for derivation of the value of kon from Equation 11. […] Data in panels A and B were taken from ([30]) and were obtained under the following experimental conditions: 400 mM ChCl, 50 mM Tris, 0.1% PEG8000, pH 8, at 15 °C. CS, conformational selection; FPR, H-D-Phe-Pro-Arg-p-nitroanilide; IF, induced fit.
as §1

[2] = model independent, 400 mM ChCl, 50 mM Tris, 0.1% PEG8000, pH 8, 15 °C, fit of data from ref 30
[3] = model independent, pH 8, 15 °C, fit of data from ref 30
[4] = IF, conversion formulas of Table 1

αˆ(0)=k12+k21 (thrombin mutant S195A; CS, from Equation 9): 19 ± 2 s⁻¹
k12 (thrombin mutant S195A; CS, method of this paper): 17 ± 2 s⁻¹
k21 (thrombin mutant S195A; CS, method of this paper): 2.0 ± 0.2 s⁻¹
koffCS (thrombin mutant S195A; CS, method of this paper): 0.60 ± 0.06 s⁻¹
konCS (thrombin mutant S195A; CS, method of this paper (Equation 11)): 2.4 ± 0.2 µM⁻¹ s⁻¹
k23 (thrombin mutant S195A; IF, method of this paper): 13 ± 1 (13 ± 1) s^−1
k32 (thrombin mutant S195A; IF, method of this paper): 4.4 ± 0.4 s⁻¹
koffIF (thrombin mutant S195A; IF, method of this paper): 2.6 ± 0.3 s⁻¹
konIF (thrombin mutant S195A; IF, method of this paper): 2.4 ± 0.2 µM⁻¹ s⁻¹
kon (thrombin mutant S195A; model independent, derived from Equation 11): 2.4 ± 0.2 µM⁻¹ s⁻¹
α(0), lower asymptote of slow relaxation (thrombin mutant S195A; [2]): 0.60 ± 0.06 s⁻¹
α(∞), asymptote of slow relaxation (thrombin mutant S195A; [2]): 17 ± 2 s⁻¹
xm, midpoint of the slow relaxation (thrombin mutant S195A; [3]): 4.3 ± 0.4 µM
α(xm), slow relaxation at midpoint (thrombin mutant S195A; [3]): 8.8 ± 0.9 s⁻¹
αˆ(0)=k12+k21 ([1]; CS, from Equation 9): 890 ± 90 s⁻¹
k12 ([1]; CS, method of this paper): 150 ± 20 s⁻¹ and 150 ± 10 s⁻¹
k21 ([1]; CS, method of this paper): 740 ± 70 s⁻¹
koffCS ([1]; CS, method of this paper): 25 ± 3 s⁻¹
konCS ([1]; CS, method of this paper): 4.0 ± 0.4 µM⁻¹ s⁻¹
koff higher for prethrombin-2 than for thrombin ([1]; CS, prethrombin-2 versus thrombin): 40 fold
k23 [1, 4]: 120 ± 10 s⁻¹
k32 [1, 4]: 29 ± 3 s⁻¹
Structure (SMILES): N=C(N)NCCC[C@H](NC(=O)[C@@H]1CCCN1C(=O)[C@H](N)Cc1ccccc1)C(=O)Nc1ccc([N+](=O)[O-])cc1 [FPR, H-D-Phe-Pro-Arg-p-nitroanilide]
